# Results published in patent US20250353825A1, “CANNABICYCLOL DERIVATIVES AND PREPARATION METHODS THEREOF” (priority 2023, published 2025).
# Tested on: not listed separately
# Assay: MTS cell viability assay, HEK-293T (293T) normal cells
# Format: cell-based
# Conditions: human
# Procedure: (§1) Primary viability screening: (1) the synthesized compounds 3a to 13d were respectively dissolved in DMSO to prepare a 40 μg/mL cannabicyclol and cannabicyclol derivative solutions.
# (§2) (2) A control group: a 200 μL DMSO solvent.
# (§3) (3) The solutions of compounds 3a to 13d were diluted in a twofold gradient to obtain cannabicyclol and cannabicyclol derivative solutions at concentrations of 40 μg/mL, 20 μg/mL, 10 μg/mL, 5 μg/mL, 2.5 μg/mL, 1.25 μg/mL, and 0.625 μg/mL, and 0.3125 μg/mL, respectively.
# (§4) (4) Three glioblastoma stem cells (GSC-3, GSC-12, and GSC-18), three pancreatic cancer cell-derived stem cells (PANC-1-CSC, BXPC-3-CSC, and ASPC1-CSC), three liver cancer cell-derived stem cells (HepG2-CSC, MHCC97H-CSC, and SMMC7721-CSC), HEK-293T cells, 16 tumor cells (U251, U87, T98G, PANC1, BXPC3, ASPC1, HepG2, MHCC97H, SMMC7721, PC3, SKOV3, MDA-MB231, A549, HCT116, HEC-1B, MKN28), and differentiated glioblastoma stem cells (GSC-3diff and GSC-12diff) derived from GSC-3 and GSC-12 (all of the cells were provided by the Laboratory of Tumor Animal Model Preparation and Application Research, West China Hospital, Sichuan University) were inoculated into a 96-well plate at a concentration of 2×10^4 cells/well, and 100 μL of culture medium was then added to each well;
# (§5) (5) 2) HEK-293T, GSC-3diff, GSC-12diff, and the 16 tumor cells were added with DMEM, 10% FBS, and 1% double antibody culture medium. Cancer stem cells (CSCs) were added with serum-free stem cell medium consisting of DMEM/F12, EGF (20 ng/mL), bFGF (20 ng/mL), B27 (1×), and 1% double antibody culture medium.
# (§6) (6) Inoculated cells were put into a cell culture incubator for 24 hours, and after the cells were well adhered to the wall, the culture medium in the 96-well plate was discarded.
# (§7) (7) 200 μL cannabicyclol and cannabicyclol derivatives solutions at different concentrations were added to the cultured cells.
# (§8) (8) The experiment was set up with 3 replicates.
# (§9) (9) The 96-well plate was placed in a cell culture incubator, and incubation was continued at 37° C. and 5% CO2 for 72 hours. Then, 100 μL of cannabicyclol and cannabicyclol derivative solution per well was discarded (100 μL of DMSO solvent was discarded for the control group), and 20 μL of LMTS (CellTiter AQueous Non-Radioactive Cell Proliferation Assay, #G3581) was mixed and continued to be placed in the cell incubator for 2 hours of incubation.
# (§10) (10) The absorbance value at 490 nm was measured on an enzyme labeling apparatus, and the IC50 value was calculated.
row,Compound,viability at 72 h [%]
1,CC12CCC3C1C(c1c(O)cc(-c4ccc(F)cc4)cc1O2)C3(C)C (centres unmarked) [Compound 3r],45
2,COc1ccc(-c2cc(O)c3c(c2)OC2(C)CCC4C2C3C4(C)C)cc1 (centres unmarked) [Compound 3q],40
3,CCCCCc1cc(OC(=O)CCCCOc2cc(=O)oc3ccccc23)c2c(c1)OC1(C)CCC3C1C2C3(C)C (centres unmarked) [Compound 9t],≥ 100
4,Cc1cc(O)c2c(c1)OC1(C)CCC3C1C2C3(C)C (centres unmarked) [Compound 3c],≥ 100
5,CC(C)(C)c1ccc(-c2cc(O)c3c(c2)OC2(C)CCC4C2C3C4(C)C)cc1 (centres unmarked) [Compound 3p],≥ 100
6,Cc1ccc(-c2cc(O)c3c(c2)OC2(C)CCC4C2C3C4(C)C)cc1 (centres unmarked) [Compound 3l],62
7,CC12CCC3C1C(c1c(O)cc(-c4ccccc4)cc1O2)C3(C)C (centres unmarked) [Compound 3k],45
8,CC12CCC3C1C(c1c(O)cc(-c4ccc(Cl)cc4)cc1O2)C3(C)C (centres unmarked) [Compound 3s],64
9,Cc1cccc(-c2cc(O)c3c(c2)OC2(C)CCC4C2C3C4(C)C)c1 (centres unmarked) [Compound 3m],≥ 100
10,Cc1cc(C)cc(-c2cc(O)c3c(c2)OC2(C)CCC4C2C3C4(C)C)c1 (centres unmarked) [Compound 3o],81
11,Cc1ccccc1-c1cc(O)c2c(c1)OC1(C)CCC3C1C2C3(C)C (centres unmarked) [Compound 3n],50
12,CCCCCc1cc(OC(=O)CCCC[P+](c2ccccc2)(c2ccccc2)c2ccccc2)c2c(c1)OC1(C)CCC3C1C2C3(C)C (centres unmarked) [Compound 9s],21

# Same assay, conditions: human, HEK-293T (293T) normal cells; primary viability screening, 72 hours, MTS; test concentration not stated; read-out: Cell viability in 293T (%)
row,Compound,viability at 72 h [%]
1,CCCCc1cc(O)c2c(c1)OC1(C)CCC3C1C2C3(C)C (centres unmarked) [Compound 3e],60
2,C=CCOc1cc(CCCCC)cc2c1C1C3C(CCC3(C)O2)C1(C)C (centres unmarked) [Compound 7a],77
3,CCCCCc1cc(OC(=O)/C=C/c2ccccc2)c2c(c1)OC1(C)CCC3C1C2C3(C)C (centres unmarked) [Compound 9g],≥ 100
4,CCCCCc1cc(OC)c2c(c1)OC1(C)CCC3C1C2C3(C)C (centres unmarked) [Compound 7b],95
5,CCCCCc1cc(OC(=O)/C=C/c2ccc(OC)cc2)c2c(c1)OC1(C)CCC3C1C2C3(C)C (centres unmarked) [Compound 9h],≥ 100
6,CCCCCc1cc(OCC)c2c(c1)OC1(C)CCC3C1C2C3(C)C (centres unmarked) [Compound 7c],79

# Tested on: GSC-3 (3#-GSC)
# Assay: MTS cell viability assay, glioblastoma stem cells GSC-3 (3#-GSC)
# Format: cell-based
# Conditions: 72 h
# Procedure: as §1, §2, §3, §4, §5, §6, §7, §8, §9, §10
row,Compound,Cell viability in 3#-GSC (%)
1,CC12CCC3C1C(c1c(O)cc(-c4ccc(F)cc4)cc1O2)C3(C)C (centres unmarked) [Compound 3r],43
2,COc1ccc(-c2cc(O)c3c(c2)OC2(C)CCC4C2C3C4(C)C)cc1 (centres unmarked) [Compound 3q],39
3,CCCCCc1cc(OC(=O)CCCCOc2cc(=O)oc3ccccc23)c2c(c1)OC1(C)CCC3C1C2C3(C)C (centres unmarked) [Compound 9t],≥100
4,Cc1cc(O)c2c(c1)OC1(C)CCC3C1C2C3(C)C (centres unmarked) [Compound 3c],≥100
5,CC(C)(C)c1ccc(-c2cc(O)c3c(c2)OC2(C)CCC4C2C3C4(C)C)cc1 (centres unmarked) [Compound 3p],67
6,Cc1ccc(-c2cc(O)c3c(c2)OC2(C)CCC4C2C3C4(C)C)cc1 (centres unmarked) [Compound 3l],51
7,CC12CCC3C1C(c1c(O)cc(-c4ccccc4)cc1O2)C3(C)C (centres unmarked) [Compound 3k],52
8,CC12CCC3C1C(c1c(O)cc(-c4ccc(Cl)cc4)cc1O2)C3(C)C (centres unmarked) [Compound 3s],49
9,Cc1cccc(-c2cc(O)c3c(c2)OC2(C)CCC4C2C3C4(C)C)c1 (centres unmarked) [Compound 3m],42
10,Cc1cc(C)cc(-c2cc(O)c3c(c2)OC2(C)CCC4C2C3C4(C)C)c1 (centres unmarked) [Compound 3o],64
11,Cc1ccccc1-c1cc(O)c2c(c1)OC1(C)CCC3C1C2C3(C)C (centres unmarked) [Compound 3n],41
12,CCCCCc1cc(OC(=O)CCCC[P+](c2ccccc2)(c2ccccc2)c2ccccc2)c2c(c1)OC1(C)CCC3C1C2C3(C)C (centres unmarked) [Compound 9s],40

# Same assay, conditions: judged in words from preliminary viability screening against 3#-GSC, 293T and U251
row,Compound,selective anti-glioma stem cell viability
1,CC(C)(C)c1ccc(-c2cc(O)c3c(c2)OC2(C)CCC4C2C3C4(C)C)cc1 (centres unmarked) [Compound 3p],weak selective anti-glioma stem cell viability
2,Cc1cccc(-c2cc(O)c3c(c2)OC2(C)CCC4C2C3C4(C)C)c1 (centres unmarked) [Compound 3m],weak selective anti-glioma stem cell viability

# Same assay, conditions: primary viability screening, 72 hours, MTS; test concentration not stated
row,Compound,Cell viability in 3#-GSC (%)
1,CCCCc1cc(O)c2c(c1)OC1(C)CCC3C1C2C3(C)C (centres unmarked) [Compound 3e],30
2,C=CCOc1cc(CCCCC)cc2c1C1C3C(CCC3(C)O2)C1(C)C (centres unmarked) [Compound 7a],≥100
3,CCCCCc1cc(OC(=O)/C=C/c2ccccc2)c2c(c1)OC1(C)CCC3C1C2C3(C)C (centres unmarked) [Compound 9g],≥100
4,CCCCCc1cc(OC)c2c(c1)OC1(C)CCC3C1C2C3(C)C (centres unmarked) [Compound 7b],≥100
5,CCCCCc1cc(OC(=O)/C=C/c2ccc(OC)cc2)c2c(c1)OC1(C)CCC3C1C2C3(C)C (centres unmarked) [Compound 9h],90
6,CCCCCc1cc(OCC)c2c(c1)OC1(C)CCC3C1C2C3(C)C (centres unmarked) [Compound 7c],≥100

# Tested on: U251
# Assay: MTS cell viability assay, U251
# Format: cell-based
# Conditions: human, 72 h
# Procedure: as §1, §2, §3, §4, §5, §6, §7, §8, §9, §10
row,Compound,Cell viability in U251 (%)
1,CC12CCC3C1C(c1c(O)cc(-c4ccc(F)cc4)cc1O2)C3(C)C (centres unmarked) [Compound 3r],76
2,COc1ccc(-c2cc(O)c3c(c2)OC2(C)CCC4C2C3C4(C)C)cc1 (centres unmarked) [Compound 3q],19
3,CCCCCc1cc(OC(=O)CCCCOc2cc(=O)oc3ccccc23)c2c(c1)OC1(C)CCC3C1C2C3(C)C (centres unmarked) [Compound 9t],≥100
4,Cc1cc(O)c2c(c1)OC1(C)CCC3C1C2C3(C)C (centres unmarked) [Compound 3c],88
5,CC(C)(C)c1ccc(-c2cc(O)c3c(c2)OC2(C)CCC4C2C3C4(C)C)cc1 (centres unmarked) [Compound 3p],97
6,Cc1ccc(-c2cc(O)c3c(c2)OC2(C)CCC4C2C3C4(C)C)cc1 (centres unmarked) [Compound 3l],45
7,CC12CCC3C1C(c1c(O)cc(-c4ccccc4)cc1O2)C3(C)C (centres unmarked) [Compound 3k],15
8,CC12CCC3C1C(c1c(O)cc(-c4ccc(Cl)cc4)cc1O2)C3(C)C (centres unmarked) [Compound 3s],91
9,Cc1cccc(-c2cc(O)c3c(c2)OC2(C)CCC4C2C3C4(C)C)c1 (centres unmarked) [Compound 3m],90
10,Cc1cc(C)cc(-c2cc(O)c3c(c2)OC2(C)CCC4C2C3C4(C)C)c1 (centres unmarked) [Compound 3o],88
11,Cc1ccccc1-c1cc(O)c2c(c1)OC1(C)CCC3C1C2C3(C)C (centres unmarked) [Compound 3n],17
12,CCCCCc1cc(OC(=O)CCCC[P+](c2ccccc2)(c2ccccc2)c2ccccc2)c2c(c1)OC1(C)CCC3C1C2C3(C)C (centres unmarked) [Compound 9s],17

# Same assay, conditions: primary viability screening, 72 hours, MTS; test concentration not stated
row,Compound,Cell viability in U251 (%)
1,CCCCc1cc(O)c2c(c1)OC1(C)CCC3C1C2C3(C)C (centres unmarked) [Compound 3e],17
2,C=CCOc1cc(CCCCC)cc2c1C1C3C(CCC3(C)O2)C1(C)C (centres unmarked) [Compound 7a],81
3,CCCCCc1cc(OC(=O)/C=C/c2ccccc2)c2c(c1)OC1(C)CCC3C1C2C3(C)C (centres unmarked) [Compound 9g],≥100
4,CCCCCc1cc(OC)c2c(c1)OC1(C)CCC3C1C2C3(C)C (centres unmarked) [Compound 7b],91
5,CCCCCc1cc(OC(=O)/C=C/c2ccc(OC)cc2)c2c(c1)OC1(C)CCC3C1C2C3(C)C (centres unmarked) [Compound 9h],≥100
6,CCCCCc1cc(OCC)c2c(c1)OC1(C)CCC3C1C2C3(C)C (centres unmarked) [Compound 7c],80
